{"source": "patent US12544343B2", "about": "“Treatment of inflammatory condition in mucous membrane or skin” (MUCOCORT AB, priority 2019, dated 2026)", "key": {"PBMC": {"system": "PBMC", "format": "cell-based, human", "procedure": "This Example investigated whether the inhibition of TNF-α in Example 2 and/or IL-2 in Example 3 was due to cell death of the PBMCs.\nPBMCs were isolated from one donor as described in Example 1. 1 ml of 2×10^6 PBMC cells were added to 12 wells in a 24-well plate. 1 ml of 2000 mM propane-1,2-diol was added to two of the wells to get a final concentration of 1000 mM (8% propane-1,2-diol). The same procedure was used to obtain decreasing concentrations of propane-1,2-diol (500 mM (4% propane-1,2-diol), 250 mM (2% propane-1,2-diol), 125 mM (1% propane-1,2-diol), 62.5 mM (0.5% propane-1,2-diol)). After 24 hrs incubation at 37° C. and 5% CO2, 15 μl of each cell culture was mixed with 15 μl of tryptan blue and dead cells out of 100 cells were counted under a light microscope."}, "IL-2 production": {"system": "IL-2 production", "experiment": "IL-2 production by PHA-stimulated human PBMC (ELISA)", "format": "cell-based", "conditions": "100 mM propane-1,2-diol, 1 μg/ml PHA-stimulated PBMC, FIG. 4", "procedure": "Human venous blood was sampled and collected in heparinized vials and mix well by gently inverting the tubes several times. Human peripheral blood mononuclear cells (PBMCs) were isolated by gradient centrifugation using Ficoll-Histopaque®. Cells were washed (centrifuged at 400×g for 10 min) with sterile phosphate-buffered saline (PBS). PBS was discarded, and the cell pellet re-suspended in sterile Dulbecco's Modified Eagle's Medium (DMEM). Cells were then counted by haemocytometer using white blood cell (W.B.C.) diluting fluid: 15 μl of cell suspension was added to 15 μl trypan blue and mixed well. The cell suspension was loaded in a haemocytometer and the cells were counted. The cell concentration was adjusted at 2×10^6 cells/ml with DMEM supplemented with 1% of penicillin-streptomycin solution and 5% human serum. The approximate yield of cells varied between 107-10^8 cells/ml. 1 ml of cell suspension was seeded in a 24 well culture plate. 1 ml propane-1,2-diol diluted in DMEM was added at various concentrations (from 0 to 100 mM). Phytohemagglutinin (PHA), 15 μl, was added to a final concentration of 1 μg/ml. When the effect of different concentrations of PHA were studied (FIG. 1), the range used varied from 0 to 25 μg/ml. […] IL-2 production was determined by ELISA using procedures (BioSite, Sweden; Art. No: EA102165) according to the manufacturer's specifications."}, "pig oral mucosa": {"system": "pig oral mucosa", "experiment": "Dehydration effect towards oral mucosa (immersion of tissue in solution)", "procedure": "Fresh pig oral mucosa (300-700 mg) was equilibrated at room temperature at 40% relative humidity (RH), weighed and immersed in 5 ml of the investigated solution for 20 h at room temperature (RT, ˜20-25° C.). The tissue was removed from the solution, dried by blotting and weighed. Finally, it was dried at +40° C. for 24 h."}, "TNF-α production": {"system": "TNF-α production", "experiment": "TNF-α production by LPS-stimulated human PBMC (ELISA)", "format": "cell-based", "procedure": "Human venous blood was sampled and collected in heparinized vials and mix well by gently inverting the tubes several times. Human peripheral blood mononuclear cells (PBMCs) were isolated by gradient centrifugation using Ficoll-Histopaque®. Cells were washed (centrifuged at 400×g for 10 min) with sterile phosphate-buffered saline (PBS). PBS was discarded, and the cell pellet re-suspended in sterile Dulbecco's Modified Eagle's Medium (DMEM). Cells were then counted by haemocytometer using white blood cell (W.B.C.) diluting fluid: 15 μl of cell suspension was added to 15 μl trypan blue and mixed well. The cell suspension was loaded in a haemocytometer and the cells were counted. The cell concentration was adjusted at 2×10^6 cells/ml with DMEM supplemented with 1% of penicillin-streptomycin solution and 5% human serum. The approximate yield of cells varied between 107-10^8 cells/ml. 1 ml of cell suspension was seeded in a 24 well culture plate. 1 ml propane-1,2-diol diluted in DMEM was added at various concentrations (from 0 to 100 mM). Phytohemagglutinin (PHA), 15 μl, was added to a final concentration of 1 μg/ml. When the effect of different concentrations of PHA were studied (FIG. 1), the range used varied from 0 to 25 μg/ml. The plate was incubated for 24 h at +37° C. and in 5% CO2. The plate was then frozen at −20° C. until further analysis. After thawing the samples, an enzyme-linked immunosorbent assay (ELISA) was performed according to the manufacturer's specifications. In vitro culture of human PBMCs was performed as described above in Example 1. In brief, 1 ml propane-1,2-diol was added to 1 ml PBMC to obtain a range of 30 final concentrations (0 to 100 mM). 15 μl LPS was added to a final concentration of 100 nM and the cell suspension was incubated at 37° C. in 5% CO2 for 24 h. The plate was then frozen in −20° C. until the ELISA analysis. TNF-α production was determined by ELISA using procedures (BioSite, Sweden; Art. No: EA102165) according to the manufacturer's specifications."}}, "note": "Entries after “also recorded” stand apart in the source; their conditions may differ.", "data": [{"smiles": "CC(O)CO", "note": "(stereo not shown) [propane-1,2-diol]", "values": [{"measurement": "cell death of peripheral blood mononuclear cells at 5% (w/v)", "setting": "PBMC", "value": "induced a significant cell death"}, {"measurement": "toxic effect / cell death of PBMCs, up to 1%", "setting": "PBMC", "value": "did not have any significant toxic effect"}, {"measurement": "toxic effects / cell death at an amount according to the invention", "setting": "PBMC", "value": "does not have any significant toxic effects"}, {"measurement": "IL-2 production reduced, patient A", "setting": "IL-2 production; patient A", "value": 53, "unit": "%"}, {"measurement": "IL-2 production reduced, patient B", "setting": "IL-2 production; patient B", "value": 64, "unit": "%"}, {"measurement": "dehydration effect at 1% and 5%", "setting": "pig oral mucosa; propane-1,2-diol solutions at concentration of 1% and 5%", "value": "No dehydration effect"}, {"measurement": "dehydration effect at 50%, 80% and 100%", "setting": "pig oral mucosa; propane-1,2-diol solutions at concentrations 50%, 80% and 100%", "value": "dehydration effect was evident"}, {"measurement": "inhibition of TNF-α, concentration dependence", "setting": "TNF-α production; 0 to 100 mM, LPS-stimulated PBMC from 4 individuals, FIGS. 1A-1D", "value": "concentration-dependent inhibition"}, {"measurement": "inhibition of TNF-α at 100 mM", "setting": "TNF-α production; 100 mM propane-1,2-diol, LPS-stimulated PBMC from 4 individuals, 24 h, FIGS. 1A-1D", "value": "maximal inhibition; also recorded: strong inhibition"}, {"measurement": "inhibition of TNF-α in PBMC from 12 individuals", "setting": "TNF-α production; 100 mM, LPS-stimulated PBMCs from 12 different individuals, FIG. 2", "value": "inhibition was observed in all 12 individuals"}]}]}
